Source: patent EP4640676A1, “CRYSTAL FORM OF FLUORINE-SUBSTITUTED INDAZOLE COMPOUND AND USE THEREOF” (Sunshine Lake Pharma Co., Ltd., priority 2022, dated 2024)

How the values were obtained:
[1] = High-temperature stability test; type: physicochemical; details: for Outward: colour
Method: (§1) • (1) High-Temperature Test: Place an appropriate amount of the test sample in a flat weighing bottle, spreading it into a thin layer ≤5 mm thick. Store at 60°C ± 2°C for 30 days. Collect samples at 0, 5, 10, and 30 days for analysis according to the key stability test items. Observe any color changes and determine purity by HPLC. • (2) High-Humidity Test: Place an appropriate amount of the test sample from one batch in a flat weighing bottle, spreading it into a thin layer ≤5 mm thick. Store at 25°C and 90% ± 5% relative humidity (RH) for 30 days. Collect samples at 0, 5, 10, and 30 days for analysis according to the key stability test items. Observe any color changes and determine purity by HPLC. • (3) Light-Exposure Test: Expose the sample to visible light (4500 lx ± 500 lx) and UV light (energy ≥0.7 W·h/m^2) for 30 days. Collect samples at 0, 5, 10, 15, and 30 days for analysis according to the key stability test items. Observe any color changes and determine purity by HPLC. • (4) Accelerated Test: Package an appropriate amount of the test sample from one batch in single-layer PE with aluminum foil. Store at 40°C ± 2°C / 75% ± 5% RH for […]. Collect samples at 0, 1, 2, 3, and 6 months for analysis according to the key stability test items. Observe any color changes and determine purity by HPLC.

[2] = High-humidity stability test; type: physicochemical; details: 25°C, 90% ± 5% RH, 30 day; for Outward: colour
Method: as §1

[3] = Crystal form transformation (polymorphic transition); type: physicochemical; details: for crystal form transformation: in solvents such as ethanol
[4] = Light-exposure stability test; type: physicochemical; details: 30 day; for Outward: colour
Method: as §1

[5] = Solubility test (HPLC); type: physicochemical; details: figures not given
Method: The solubility of the present invention was determined using an Agilent 1200 High Performance Liquid Chromatograph DAD/VWD detector with an Agilent XDB-C18 model (4.6 x 50 mm, 5 µm). Detection wavelength of 266 nm, flow rate of 1.0 mL/min, the column temperature of 35 °C, mobile phase A: acetonitrile - 0.01 M ammonium acetate = 10:90 (V: V) analysis methods: acetonitrile - mobile phase A= 70:30 (V: V), running time: 10 minutes.

[6] = Accelerated stability test; type: physicochemical; details: 40°C ± 2°C / 75% ± 5% RH; for Outward: colour
Method: as §1

[7] = Pharmacokinetics test, oral capsules; type: in vivo; details: male Beagle dogs, 5 mg/kg, figures not given
Method: Male Beagle dogs of 8-12 kg were divided into 3 groups, 3 dogs in each group, and capsules containing test samples were orally administered at a dose of 5 mg/kg, and blood was collected at time points of 0.25, 0.5, 1.0, 2.0, 4.0, 6.0, 8.0 and 24 h. Standard curve was plotted based on concentrations of the samples in a suitable range, the concentration of the test sample in the plasma sample was measured and quantified by AB SCIEX API4000-type LC-MS / MS at MRM mode. Pharmacokinetic parameters were calculated according to drug concentration -time curve using a noncompartmental method by WinNonLin 6.3 software.

[8] = Hygroscopicity test by dynamic vapor sorption (DVS); type: physicochemical
Method: The hygroscopicity of the present invention was determined using a DVS INT-Std dynamic vapor and gas sorption analyzer from Surface Measurement Systems Ltd. (UK) with the following parameters: humidity test range: 0%-95%, gas flow: 200 mL/min, temperature: 25°C, test points: one measurement point every 5% humidity increase.
An appropriate amount of the test sample was taken, and its hygroscopicity was measured using a dynamic vapor sorption (DVS) instrument. The classification criteria for hygroscopicity characteristics and moisture absorption weight gain (as per Appendix 9103 "Guidelines for Hygroscopicity Testing of Drugs" from the Chinese Pharmacopoeia 2020 Edition, test conditions: 25°C ± 1°C, 80% ± 2% relative humidity (RH)) are described in Table 3 below: Table 3 The description of the hygroscopicity feature and the definition of the hygroscopicity gain

[9] = Accelerated stability test; type: physicochemical; details: 40°C ± 2°C / 75% ± 5% RH, 6 month
[10] = 0 day, common start value of the high-temperature, high-humidity and light-exposure tests, HPLC
[11] = 0 day, common start value of the three tests
[12] = High-Temperature, 60°C ± 2°C, 30 day

With `COC(=O)Nc1c(N)nc(-c2nn(Cc3ccccc3F)c3c(F)cccc23)nc1N` [Crystal Form V, methyl (4,6-diamino-2-(7-fluoro-1-(2-fluorobenzyl)-1H-indazol-3-yl)pyrimidin-5-yl)carbamate] the “Purity (%)” value [1, 10] was 99.52%, the Outward [1, 11] was “Off-white” and the “Purity (%)” value ([1]; High-Temperature, 60°C ± 2°C, 30 day, HPLC, 43200 min) was 99.47%. For the same compound, the Outward [1, 12] was “Off-white”, the “Purity (%)” value ([2]; HPLC, 43200 min) was 99.51% and the Outward [2] was “Off-white”. For the same compound, the crystal form transformation [3] was “transform into Crystal form II”, the polymorphic transition ([3]; under high temperature conditions) was “undergoes polymorphic transition” and the Outward [4] was “Pale yellow”. The “Purity (%)” value ([4]; visible light 4500 lx ± 500 lx and UV light, HPLC, 43200 min) was 99.36%.
In the case of `COC(=O)Nc1c(N)nc(-c2nn(Cc3ccccc3F)c3c(F)cccc23)nc1N` [Crystal Form II, methyl (4,6-diamino-2-(7-fluoro-1-(2-fluorobenzyl)-1H-indazol-3-yl)pyrimidin-5-yl)carbamate], the solubility [5] is reported as “good solubility”, the “Purity (%)” value [1, 10] is reported as 99.97% and the Outward [1, 11] is reported as “Off-white”. The Outward [1, 12] was “Off-white”, the stability ([1]; conclusion over various storage conditions (high-temperature, high-humidity, light-exposure and accelerated tests)) was “excellent stability” and the remaining at 720 h ([1]; solid storage, High-Temperature, 60°C ± 2°C, 30 day, HPLC, read-out: Purity (%)) was 99.9%. The Outward [2] was “Off-white”, the remaining at 720 h ([2]; solid storage, 90% rh, HPLC, read-out: Purity (%)) was 100% and the “stability of the crystal structure” value ([3]; in contrast to the other crystal forms) was “less prone to polymorphic transition”. The “Purity (%)” value ([6]; 0 day) was 99.96%, the Outward ([6]; 0 day) was “Off-white” and the Outward ([6]; 1 month) was “Off-white”. For the same compound, the Outward ([6]; 2 month) was “Off-white”, the Outward ([6]; 3 month) was “Off-white” and the remaining at 720 h ([6]; solid storage, 75% rh, 1 month, read-out: Purity (%)) was 100%. The remaining at 1440 h ([6]; solid storage, 75% rh, 2 month, read-out: Purity (%)) was 100%, the remaining at 2160 h ([6]; solid storage, 75% rh, 3 month, read-out: Purity (%)) was 100% and the pharmacokinetic properties [7] was “excellent pharmacokinetic properties”. For the same compound, the “Weight Gain at 60% RH (%)” value ([8]; DVS, 25°C, 60% RH) was 0.02%, the “Weight Gain at 80% RH (%)” value ([8]; DVS, 25°C, 80% RH) was 0.05% and the “Weight Gain at 95% RH (%)” value ([8]; DVS, 25°C, 95% RH) was 0.18%. For the same compound, the the hygroscopicity feature ([8]; classification per Chinese Pharmacopoeia 2020, 25°C ± 1°C, 80% ± 2% RH) was “no or negligible hygroscopicity”, the deliquescence ([8]; under high humidity conditions) was “not prone to deliquescence” and the Outward ([9]; colour) was “Off-white”. The remaining at 4320 h ([9]; solid storage, 75% rh, read-out: Purity (%)) was 99.9%, the Outward [4] was “Pale yellow” and the remaining at 720 h ([4]; solid storage, light exposure, visible light 4500 lx ± 500 lx and UV light, HPLC, read-out: Purity (%)) was 99.9%.
For `COC(=O)Nc1c(N)nc(-c2nn(Cc3ccccc3F)c3c(F)cccc23)nc1N` [Crystal Form I, methyl (4,6-diamino-2-(7-fluoro-1-(2-fluorobenzyl)-1H-indazol-3-yl)pyrimidin-5-yl)carbamate], the crystal form transformation [3] was “transform into Crystal form II”.
